Experimental data reported in US9073940B2, “Tricyclic pyrazol amine derivatives” (MERCK SERONO SA, priority 2009, dated 2015).

Tested on: 4 PI3K isoforms (Human recombinant GST-PI3K)
Assay: PI3K scintillation proximity assay, best IC50 obtained with the four isoforms (alpha, beta, delta, gamma)
Assay type: biochemical
Conditions: best IC50 obtained with the four isoforms of PI3K; read-out: Best potency measured on the 4 PI3K isoforms

Compound	IC50 [nM]
CS(=O)(=O)C1CCN(Cc2ccc(-n3nc(C(=O)N4CCOCC4)c4c3-c3ccccc3S(=O)(=O)C4)cc2)C1 (stereo not drawn) [Example 229, 1-(4-{[3-(Methylsulfonyl)pyrrolidin-1-yl]methyl}phenyl)-3-(morpholin-4-ylcarbonyl)-1,4-dihydrothiochromeno[4,3-c]pyrazole 5,5-dioxide]	920
CCc1noc(Cn2nc(C(=O)N3CCOCC3)c3c2-c2ccccc2S(=O)(=O)C3)n1 [Example 230, 1-[(3-Ethyl-1,2,4-oxadiazol-5-yl)methyl]-3-(morpholin-4-ylcarbonyl)-1,4-dihydrothiochromeno[4,3-c]pyrazole 5,5-dioxide]	1920
COC(=O)c1ccc(Cn2nc(C(=O)N3CCOCC3)c3c2-c2ccccc2S(=O)(=O)C3)o1 [Example 231, Methyl 5-{[3-(morpholin-4-ylcarbonyl)-5,5-dioxidothiochromeno[4,3-c]pyrazol-1(4H)-yl]methyl}-2-furoate]	431
COc1cccc(Cn2nc(C(=O)N3CCOCC3)c3c2-c2ccccc2S(=O)(=O)C3)c1 [Example 232, 1-(3-Methoxybenzyl)-3-(morpholin-4-ylcarbonyl)-1,4-dihydrothiochromeno[4,3-c]pyrazole 5,5-dioxide]	1170
CC(C)CCOC1CCN(Cc2ccc(-n3nc(C(=O)N4CCOCC4)c4c3-c3ccccc3S(=O)(=O)C4)cc2)C1 (stereo not drawn) [Example 233, 1-(4-{[3-(3-Methylbutoxy)pyrrolidin-1-yl]methyl}phenyl)-3-(morpholin-4-ylcarbonyl)-1,4-dihydrothiochromeno[4,3-c]pyrazole 5,5-dioxide]	167
COC1CCN(Cc2cccc(-n3nc(C(=O)N4CCOCC4)c4c3-c3ccccc3S(=O)(=O)C4)c2)CC1 [Example 234, 1-{3-[(4-Methoxypiperidin-1-yl)methyl]phenyl}-3-(morpholin-4-ylcarbonyl)-1,4-dihydrothiochromeno[4,3-c]pyrazole 5,5-dioxide]	240
CC(C)CCOC1CCN(Cc2cccc(-n3nc(C(=O)N4CCOCC4)c4c3-c3ccccc3S(=O)(=O)C4)c2)C1 (stereo not drawn) [Example 235, 1-(3-{[3-(3-Methylbutoxy)pyrrolidin-1-yl]methyl}phenyl)-3-(morpholin-4-ylcarbonyl)-1,4-dihydrothiochromeno[4,3-c]pyrazole 5,5-dioxide]	389
O=C(c1nn(-c2cccc(CN3CCSCC3)c2)c2c1CS(=O)(=O)c1ccccc1-2)N1CCOCC1 [Example 236, 3-(Morpholin-4-ylcarbonyl)-1-[3-(thiomorpholin-4-ylmethyl)phenyl]-1,4-dihydrothiochromeno[4,3-c]pyrazole 5,5-dioxide]	232
O=C(c1nn(-c2cccc(CN3CCC(O)CC3)c2)c2c1CS(=O)(=O)c1ccccc1-2)N1CCOCC1 [Example 237, 1-{3-[3-(Morpholin-4-ylcarbonyl)-5,5-dioxidothiochromeno[4,3-c]pyrazol-1 (4H)-yl]benzyl}piperidin-4-ol]	573
O=C(O)c1nn(-c2ccc(CN3CCOCC3)cc2)c2c1CS(=O)(=O)c1ccccc1-2 [Example 238, 1-[4-(Morpholin-4-ylmethyl)phenyl]-1,4-dihydrothiochromeno[4,3-c]pyrazole-3-carboxylic acid 5,5-dioxide]	4040
O=C(c1nn(Cc2nc3ccccc3s2)c2c1CS(=O)(=O)c1ccccc1-2)N1CCOCC1 [Example 239, 1-(1,3-Benzothiazol-2-ylmethyl)-3-(morpholin-4-ylcarbonyl)-1,4-dihydrothiochromeno[4,3-c]pyrazole 5,5-dioxide]	1490
O=C(c1nn(Cc2cc(Cl)cs2)c2c1CS(=O)(=O)c1ccccc1-2)N1CCOCC1 [Example 240, 1-[(4-Chloro-2-thienyl)methyl]-3-(morpholin-4-ylcarbonyl)-1,4-dihydrothiochromeno[4,3-c]pyrazole 5,5-dioxide]	624
O=C(c1nn(-c2cccc(CN3CCC(F)CC3)c2)c2c1CS(=O)(=O)c1ccccc1-2)N1CCOCC1 [Example 242, 1-{3-[(4-Fluoropiperidin-1-yl)methyl]phenyl}-3-(morpholin-4-ylcarbonyl)-1,4-dihydrothiochromeno[4,3-c]pyrazole 5,5-dioxide]	437
CS(=O)(=O)C1CCN(Cc2cccc(-n3nc(C(=O)N4CCOCC4)c4c3-c3ccccc3S(=O)(=O)C4)c2)C1 (stereo not drawn) [Example 243, 1-(3-{[3-(Methylsulfonyl)pyrrolidin-1-yl]methyl}phenyl)-3-(morpholin-4-ylcarbonyl)-1,4-dihydrothiochromeno[4,3-c]pyrazole 5,5-dioxide]	464
O=C(c1nn(-c2cccc(CN3CCCC(F)(F)C3)c2)c2c1CS(=O)(=O)c1ccccc1-2)N1CCOCC1 [Example 244, 1-{3-[(3,3-Difluoropiperidin-1-yl)methyl]phenyl}-3-(morpholin-4-ylcarbonyl)-1,4-dihydrothiochromeno[4,3-c]pyrazole 5,5-dioxide]	1540
O=C(c1nn(-c2cccc(CN3CCCC3)c2)c2c1CS(=O)(=O)c1ccccc1-2)N1CCOCC1 [Example 245, 3-(Morpholin-4-ylcarbonyl)-1-[3-(pyrrolidin-1-ylmethyl)phenyl]-1,4-dihydrothiochromeno[4,3-c]pyrazole 5,5-dioxide]	516
O=C(c1nn(C2CCOCC2)c2c1CS(=O)(=O)c1sccc1-2)N1CCOCC1 [Example 246, 3-(Morpholin-4-ylcarbonyl)-1-(tetrahydro-2H-pyran-4-yl)-1,4-dihydrothieno[3′,2′:5,6]thiopyrano[4,3-c]pyrazole 5,5-dioxide]	824

Compound	IC50 [nM]
O=C(c1nn(-c2cccc(CN3CCS(=O)(=O)CC3)c2)c2c1CS(=O)(=O)c1ccccc1-2)N1CCOCC1 [Example 247, 1-{3-[(1,1-Dioxidothiomorpholin-4-yl)methyl]phenyl}-3-(morpholin-4-ylcarbonyl)-1,4-dihydrothiochromeno[4,3-c]pyrazole 5,5-dioxide]	639
COCc1cccc(-n2nc(C(=O)N3CCOCC3)c3c2-c2ccccc2S(=O)(=O)C3)c1 [Example 248, 1-[3-(Methoxylmethyl)phenyl]-3-(morpholin-4-ylcarbonyl)-1,4-dihydrothiochromeno[4,3-c]pyrazole 5,5-dioxide]	997
O=C(c1nn(C2CCOCC2)c2c1CS(=O)(=O)c1c(F)cccc1-2)N1CCOCC1 [Example 249, 6-Fluoro-3-(morpholin-4-ylcarbonyl)-1-(tetrahydro-2H-pyran-4-yl)-1,4-dihydrothiochromeno[4,3-c]pyrazole 5,5-dioxide]	1030
NC(=O)c1cccc2c1S(=O)(=O)Cc1c(C(=O)N3CCOCC3)nn(-c3ccccc3)c1-2 [Example 250, 3-(Morpholin-4-ylcarbonyl)-1-phenyl-1,4-dihydrothiochromeno[4,3-c]pyrazole-6-carboxamide 5,5-dioxide]	7900
CN1CCN(Cc2ccc(-n3nc(C(=O)N4CCOCC4)c4c3-c3ccccc3S(=O)(=O)C4)cn2)CC1 [Example 252, 1-{6-[(4-Methylpiperazin-1-yl)methyl]pyridin-3-yl}-3-(morpholin-4-ylcarbonyl)-1,4-dihydrothiochromeno[4,3-c]pyrazole 5,5-dioxide]	335
CN(C)CCN1CCCC(n2nc(C(=O)N3CCOCC3)c3c2-c2ccccc2S(=O)(=O)C3)C1 (stereo not drawn) [Example 253, N,N-Dimethyl-2-{3-[3-(morpholin-4-ylcarbonyl)-5,5-dioxidothiochromeno[4,3-c]pyrazol-1 (4H)-yl]piperidin-1-yl}ethanamine]	72
CC(C)(C)OC(=O)N1CCC(n2nc(C(=O)N3CCOCC3)c3c2-c2ccccc2S(=O)(=O)C3)C1 (stereo not drawn) [Example 254]	1200
COCCN1CCC(n2nc(C(=O)N3CCOCC3)c3c2-c2ccccc2S(=O)(=O)C3)C1 (stereo not drawn) [Example 255, 1-[1-(2-Methoxyethyl)pyrrolidin-3-yl]-3-(morpholin-4-ylcarbonyl)-1,4-dihydrothiochromeno[4,3-c]pyrazole 5,5-dioxide]	1480
COCCCN1CCC(n2nc(C(=O)N3CCOCC3)c3c2-c2ccccc2S(=O)(=O)C3)C1 (stereo not drawn) [Example 256, 1-[1-(3-Methoxypropyl)pyrrolidin-3-yl]-3-(morpholin-4-ylcarbonyl)-1,4-dihydrothiochromeno[4,3-c]pyrazole 5,5-dioxide]	923
CC(C)(C)OC(=O)N1CCCC(n2nc(C(=O)N3CCOCC3)c3c2-c2ccccc2S(=O)(=O)C3)CC1 (stereo not drawn) [Example 257]	824
COCCCN1CCCC(n2nc(C(=O)N3CCOCC3)c3c2-c2ccccc2S(=O)(=O)C3)CC1 (stereo not drawn) [Example 258, 1-[1-(3-Methoxypropyl)azepan-4-yl]-3-(morpholin-4-ylcarbonyl)-1,4-dihydrothiochromeno[4,3-c]pyrazole 5,5-dioxide]	438
O=C(c1nn(-c2cccc(CN3CCC(F)(F)CC3)c2)c2c1CS(=O)(=O)c1ccccc1-2)N1CCOCC1 [Example 260, 1-{3-[(4,4-Difluoropiperidin-1-yl)methyl]phenyl}-3-(morpholin-4-ylcarbonyl)-1,4-dihydrothiochromeno[4,3-c]pyrazole 5,5-dioxide]	560
O=C(c1nn(-c2cccc(CN3CC(F)(F)C3)c2)c2c1CS(=O)(=O)c1ccccc1-2)N1CCOCC1 [Example 261, 1-{3-[(3,3-Difluoroazetidin-1-yl)methyl]phenyl}-3-(morpholin-4-ylcarbonyl)-1,4-dihydrothiochromeno[4,3-c]pyrazole 5,5-dioxide]	643
COC1CN(Cc2cccc(-n3nc(C(=O)N4CCOCC4)c4c3-c3ccccc3S(=O)(=O)C4)c2)C1 [Example 262, 1-{3-[(3-Methoxyazetidin-1-yl)methyl]phenyl}-3-(morpholin-4-ylcarbonyl)-1,4-dihydrothiochromeno[4,3-c]pyrazole 5,5-dioxide]	277
O=C(c1nn(C2CCCN(CCn3cccn3)C2)c2c1CS(=O)(=O)c1ccccc1-2)N1CCOCC1 (stereo not drawn) [Example 263, 3-(Morpholin-4-ylcarbonyl)-1-{1-[2-(1H-pyrazol-1-yl)ethyl]piperidin-3-yl}-1,4-dihydrothiochromeno[4,3-c]pyrazole 5,5-dioxide]	169
O=C(c1nn(C2CCOCC2)c2c1CS(=O)(=O)c1c(Cl)cccc1-2)N1CCOCC1 [Example 264, 6-Chloro-3-(morpholin-4-ylcarbonyl)-1-(tetrahydro-2H-pyran-4-yl)-1,4-dihydrothiochromeno[4,3-c]pyrazole 5,5-dioxide]	673
